Test results reported in US9457033B2, “Steroid alkaloids and uses thereof as antimicrobial agents against electron transport-deficient microbes and as potentiators for antimicrobial agents against pathogenic bacteria” (priority 2011, dated 2016).
Converted amounts (≈) assume the structure as drawn. Where two headings read alike, the source gives them in different places.

Key:
S. aureus MA078038 = experiment: MIC, microdilution in CAMHB 24 h; assay type: cell-based, Staphylococcus aureus; conditions: Staphylococcus aureus, MRSA
S. aureus ATCC 29213 [1] = experiment: MIC, microdilution in BHI 48 h (Examples 1, 3); assay type: cell-based, Staphylococcus aureus
S. aureus Newbould = experiment: MIC, microdilution in CAMHB 24 h; assay type: cell-based, Staphylococcus aureus; conditions: Staphylococcus aureus
S. aureus ATCC 43300 = experiment: MIC, microdilution in CAMHB 24 h; assay type: cell-based, Staphylococcus aureus; conditions: Staphylococcus aureus, ATCC 43300 / MRSA
S. aureus Sa228c = experiment: MIC, microdilution in CAMHB 24 h; assay type: cell-based, Staphylococcus aureus; conditions: Staphylococcus aureus, MRSA
[2] = test system: S. aureus Newbould (normal strain); experiment: MIC, microdilution in BHI 48 h; assay type: cell-based, Staphylococcus aureus; conditions: Staphylococcus aureus
S. aureus CF07-L = experiment: MIC, microdilution in CAMHB 24 h; assay type: cell-based, Staphylococcus aureus; conditions: Staphylococcus aureus, CF07L
S. aureus CF2A-L = experiment: MIC, microdilution in CAMHB 24 h; assay type: cell-based; conditions: Staphylococcus aureus, CF2AL
S. aureus Newman = experiment: MIC, microdilution in CAMHB 24 h; assay type: cell-based, Staphylococcus aureus; conditions: Staphylococcus aureus
S. aureus SCV CF07-S = experiment: MIC, microdilution in BHI 48 h (Examples 1, 3); assay type: cell-based, Staphylococcus aureus
S. aureus Sa220c = experiment: MIC, microdilution in CAMHB 24 h; assay type: cell-based, Staphylococcus aureus; conditions: Staphylococcus aureus, MRSA
S. aureus CF6B-L = experiment: MIC, microdilution in CAMHB 24 h; assay type: cell-based, Staphylococcus aureus; conditions: Staphylococcus aureus, CF6BL
S. aureus CF9A-L = experiment: MIC, microdilution in CAMHB 24 h; assay type: cell-based, Staphylococcus aureus; conditions: Staphylococcus aureus, MRSA
S. aureus CF7A-L = experiment: MIC, microdilution in CAMHB 24 h; assay type: cell-based, Staphylococcus aureus; conditions: Staphylococcus aureus, MRSA
S. aureus ATCC BAA-41 = experiment: MIC, microdilution in CAMHB 24 h; assay type: cell-based, Staphylococcus aureus; conditions: Staphylococcus aureus, ATCC BAA-41 / MRSA
S. aureus ATCC 29213 [3] = experiment: MIC, microdilution in CAMHB 24 h, with or without tomatidine/compound; assay type: cell-based, Staphylococcus aureus; conditions: for Fold (−TO/+TO): tomatidine at 8 μg/ml; for MIC: Staphylococcus aureus
[4] = test system: S. aureus SCV NewbouldΔhemB; experiment: MIC, microdilution in BHI 48 h; assay type: cell-based, Staphylococcus aureus; conditions: Staphylococcus aureus
[5] = test system: protein, DNA, RNA and cell wall peptidoglycan biosynthesis in ATCC 29213; experiment: Macromolecular biosynthesis assay, incorporation of radiolabeled precursors; assay type: cell-based, Staphylococcus aureus; conditions: control antibiotics at approximately 4×MIC; FIG. 3A
[6] = test system: S. aureus CF07-L (normal strain); experiment: MIC, microdilution in BHI 48 h (Examples 1, 3); assay type: cell-based, Staphylococcus aureus
S. aureus SHY97-3906 = experiment: MIC, microdilution in CAMHB 24 h; assay type: cell-based, Staphylococcus aureus; conditions: Staphylococcus aureus, SHY973906
S. aureus CF8E-L = experiment: MIC, microdilution in CAMHB 24 h; assay type: cell-based, Staphylococcus aureus; conditions: Staphylococcus aureus, CF8EL
S. aureus N315 = experiment: microbe, parasite or virus in culture; assay type: cell-based, Staphylococcus aureus; conditions: Staphylococcus aureus, MRSA
S. aureus ATCC 29213 [7] = experiment: MICs of control antibiotics for macromolecular biosynthesis assays; assay type: cell-based; conditions: Staphylococcus aureus, ATCC29213
S. aureus 8325-4 = experiment: MIC, microdilution in CAMHB 24 h; assay type: cell-based, Staphylococcus aureus; conditions: Staphylococcus aureus, 83254
[8] = test system: S. aureus CF1A-L (normal strain); experiment: MIC, microdilution in BHI 48 h; assay type: cell-based, Staphylococcus aureus; conditions: Staphylococcus aureus
S. aureus CF1A-L = experiment: MIC, microdilution in CAMHB 24 h; assay type: cell-based, Staphylococcus aureus; conditions: Staphylococcus aureus, CF1AL
S. aureus CF35A-L = experiment: MIC, microdilution in CAMHB 24 h; assay type: cell-based, Staphylococcus aureus; conditions: Staphylococcus aureus, MRSA
S. aureus SCV CF1D-S = experiment: MIC, microdilution in BHI 48 h; assay type: cell-based, Staphylococcus aureus; conditions: Staphylococcus aureus, SCVCF1DS
S. aureus CF4B-L = experiment: MIC, microdilution in CAMHB 24 h; assay type: cell-based, Staphylococcus aureus; conditions: Staphylococcus aureus, CF4BL
S. aureus Mu50 = experiment: MIC, microdilution in CAMHB 24 h; assay type: cell-based, Staphylococcus aureus; conditions: Staphylococcus aureus
S. aureus MRSA COL = experiment: MIC, microdilution in CAMHB 24 h; assay type: cell-based, Staphylococcus aureus; conditions: Staphylococcus aureus

CN[C@H](CC(C)C)C(=O)N[C@H]1C(=O)N[C@@H](CC(N)=O)C(=O)N[C@H]2C(=O)N[C@H]3C(=O)N[C@H](C(=O)N[C@H](C(=O)O)c4cc(O)cc(O)c4-c4cc3ccc4O)[C@H](O)c3ccc(c(Cl)c3)Oc3cc2cc(c3O[C@@H]2O[C@H](CO)[C@@H](O)[C@H](O)[C@H]2O[C@H]2C[C@](C)(N)[C@H](O)[C@H](C)O2)Oc2ccc(cc2Cl)[C@H]1O [Vancomycin, vancomycin]
MIC (S. aureus MA078038): 0.5 to 1 µg/mL (≈ 0.345 to 0.69 µM) | MIC (S. aureus ATCC 29213 [1]; ATCC 29213 + HQNO at 20 μg/ml): 2 µg/mL | MIC (S. aureus ATCC 29213 [1]; Staphylococcus aureus, ATCC29213, ATCC 29213, without HQNO): 2 µg/mL (≈ 1.38 µM) | MIC (S. aureus ATCC 29213 [1]; Staphylococcus aureus, ATCC29213, ATCC 29213 in BHI): 2 µg/mL (≈ 1.38 µM) | MIC (S. aureus ATCC 29213 [1]; Staphylococcus aureus, ATCC29213, ATCC 29213 in MHBCA): 1 to 2 µg/mL (≈ 0.69 to 1.38 µM) | MIC (S. aureus Newbould): 0.5 to 1 µg/mL (≈ 0.345 to 0.69 µM) | MIC (S. aureus ATCC 43300): 0.5 to 1 µg/mL (≈ 0.345 to 0.69 µM) | MIC (S. aureus Sa228c): 1 µg/mL (≈ 0.69 µM) | MIC [2]: 1 µg/mL (≈ 0.69 µM) | MIC (S. aureus CF07-L): 1 to 2 µg/mL (≈ 0.69 to 1.38 µM) | MIC (S. aureus CF2A-L): 1 µg/mL (≈ 0.69 µM) | MIC (S. aureus Newman; NEWMAN): 1 µg/mL (≈ 0.69 µM) | MIC (S. aureus SCV CF07-S; CF07-S + HQNO at 20 μg/ml): 2 µg/mL | MIC (S. aureus SCV CF07-S; CF07-S, without HQNO): 2 µg/mL (≈ 1.38 µM) | MIC (S. aureus SCV CF07-S; Staphylococcus aureus, SCVCF07S): 2 µg/mL (≈ 1.38 µM) | MIC (S. aureus Sa220c): 1 µg/mL (≈ 0.69 µM) | MIC (S. aureus CF6B-L): 0.5 to 1 µg/mL (≈ 0.345 to 0.69 µM) | MIC (S. aureus CF9A-L): 1 µg/mL (≈ 0.69 µM) | MIC (S. aureus CF7A-L): 1 µg/mL (≈ 0.69 µM) | MIC (S. aureus ATCC BAA-41): 1 µg/mL (≈ 0.69 µM) | Fold (−TO/+TO) (S. aureus ATCC 29213 [3]; ATCC 29213): 1 fold | MIC (S. aureus ATCC 29213 [3]; ATCC29213): 1 µg/mL (≈ 0.69 µM) | MIC (S. aureus ATCC 29213 [3]; ATCC29213, read-out: MIC −TO): 1 µg/mL (≈ 0.69 µM) | MIC [4]: 2 µg/mL (≈ 1.38 µM) | incorporation of radiolabeled precursors into the targeted macromolecules [5]: preferentially inhibited | MIC ([6]; CF07-L + HQNO at 20 μg/ml): 2 µg/mL | MIC ([6]; CF07-L, without HQNO): 2 µg/mL (≈ 1.38 µM) | MIC ([6]; Staphylococcus aureus): 2 µg/mL (≈ 1.38 µM) | MIC (S. aureus SHY97-3906): 0.5 to 1 µg/mL (≈ 0.345 to 0.69 µM) | MIC (S. aureus CF8E-L): 1 to 2 µg/mL (≈ 0.69 to 1.38 µM) | MIC (S. aureus N315): 0.5 µg/mL (≈ 0.345 µM) | MIC (S. aureus ATCC 29213 [7]): 0.5 to 1 µg/mL (≈ 0.345 to 0.69 µM) | MIC (S. aureus 8325-4): 1 µg/mL (≈ 0.69 µM) | MIC [8]: 1 to 2 µg/mL (≈ 0.69 to 1.38 µM) | MIC (S. aureus CF1A-L): 1 µg/mL (≈ 0.69 µM) | MIC (S. aureus CF35A-L): 1 µg/mL (≈ 0.69 µM) | MIC (S. aureus SCV CF1D-S): 2 µg/mL (≈ 1.38 µM) | MIC (S. aureus CF4B-L): 1 µg/mL (≈ 0.69 µM) | MIC (S. aureus Mu50; MRSA / VISA): 4 µg/mL (≈ 2.76 µM) | MIC (S. aureus MRSA COL; MRSA): 2 µg/mL (≈ 1.38 µM)

CCn1cc(C(=O)O)c(=O)c2cc(F)c(N3CCNCC3)cc21 [Norfloxacin, norfloxacin]
MIC (S. aureus Newbould; Newbould, Cow (mastitis), read-out: MIC): 0.5 µg/mL (≈ 1.57 µM) | MIC (S. aureus Sa228c): > 64 µg/mL | MIC (S. aureus CF07-L; CF07-L, Human (CF lungs), read-out: MIC): 1 to 2 µg/mL (≈ 3.13 to 6.26 µM) | MIC (S. aureus CF2A-L; CF2A-L, Human (CF lungs), read-out: MIC): 0.5 to 1 µg/mL (≈ 1.57 to 3.13 µM) | MIC (S. aureus Newman; Newman, Human (Osteo), read-out: MIC): 1 µg/mL (≈ 3.13 µM) | MIC (S. aureus Sa220c; Sa220c, Human (SSTI), read-out: MIC): > 64 µg/mL | MIC (S. aureus CF6B-L; CF6B-L, Human (CF lungs), read-out: MIC): > 64 µg/mL | MIC (S. aureus CF9A-L; CF9A-L, Human (CF lungs), read-out: MIC): > 64 µg/mL | MIC (S. aureus CF7A-L; CF7A-L, Human (CF lungs), read-out: MIC): > 64 µg/mL | Fold (−TO/+TO) (S. aureus ATCC 29213 [3]; ATCC 29213): 1 fold | MIC (S. aureus ATCC 29213 [3]; ATCC29213, ATCC 29213, Human (SSTI), read-out: MIC): 1 to 2 µg/mL (≈ 3.13 to 6.26 µM) | MIC (S. aureus ATCC 29213 [3]; ATCC29213, ATCC 29213, absence of tomatidine, read-out: MIC −TO): 1 to 2 µg/mL (≈ 3.13 to 6.26 µM) | MIC (S. aureus ATCC 29213 [3]; ATCC29213, ATCC 29213, presence of tomatidine at 8 μg/ml, read-out: MIC +TO): 1 to 2 µg/mL | incorporation of radiolabeled precursors into the targeted macromolecules [5]: preferentially inhibited | MIC (S. aureus SHY97-3906; SHY97-3906, Cow (mastitis), read-out: MIC): 0.5 to 1 µg/mL (≈ 1.57 to 3.13 µM) | MIC (S. aureus CF8E-L; CF8E-L, Human (CF lungs), read-out: MIC): 4 µg/mL (≈ 12.5 µM) | MIC (S. aureus ATCC 29213 [7]; ATCC 29213, data not shown, read-out: MIC): 1 µg/mL (≈ 3.13 µM) | MIC (S. aureus 8325-4; 8325-4, Laboratory strain, read-out: MIC): 1 to 2 µg/mL (≈ 3.13 to 6.26 µM) | MIC (S. aureus CF1A-L; CF1A-L, Human (CF lungs), read-out: MIC): 1 µg/mL (≈ 3.13 µM) | MIC (S. aureus CF35A-L; CF35A-L, Human (CF lungs), read-out: MIC): > 64 µg/mL | MIC (S. aureus CF4B-L; CF4B-L, Human (CF lungs), read-out: MIC): 1 µg/mL (≈ 3.13 µM) | MIC (S. aureus Mu50; Mu50, Human (SSTI), MRSA, VISA, read-out: MIC): > 64 µg/mL | MIC (S. aureus MRSA COL; MRSA COL, Human (SSTI), read-out: MIC): 2 to 4 µg/mL (≈ 6.26 to 12.5 µM)
